Columns and labels:
[1] = Inhibition of HIV1 reverse transcriptase K103N/Y181C double mutant infected in human MT4 cells harboring GFP by scanning microscopic analysis
[2] = Inhibition of wild-type HIV1 3B reverse transcriptase infected in human MT4 cells harboring GFP by scanning microscopic analysis
[3] = Inhibition of HIV1 reverse transcriptase Y181C mutant infected in human MT4 cells harboring GFP by scanning microscopic analysis
[4] = Inhibition of HIV1 reverse transcriptase K103N mutant infected in human MT4 cells harboring GFP by scanning microscopic analysis
[5] = Inhibition of HIV1 reverse transcriptase K103N/Y188C double mutant infected in human MT4 cells assessed as protection against virus-induced cytopathic effect by MTT assay
[6] = Inhibition of HIV1 LAI reverse transcriptase infected in human MT4 cells assessed as protection against virus-induced cytopathic effect by MTT assay
[7] = Inhibition of HIV1 reverse transcriptase Y188L mutant infected in human MT4 cells assessed as protection against virus-induced cytopathic effect by MTT assay
[8] = Inhibition of HIV1 reverse transcriptase L100I mutant infected in human MT4 cells assessed as protection against virus-induced cytopathic effect by MTT assay
[9] = Inhibition of HIV1 reverse transcriptase L100I/K103N double mutant infected in human MT4 cells assessed as protection against virus-induced cytopathic effect by MTT assay
[10] = Inhibition of HIV1 reverse transcriptase Y181C mutant infected in human MT4 cells assessed as protection against virus-induced cytopathic effect by MTT assay
[11] = Inhibition of HIV1 reverse transcriptase K103N mutant infected in human MT4 cells assessed as protection against virus-induced cytopathic effect by MTT assay
[12] = Inhibition of HIV1 3B reverse transcriptase infected in human MT2 cells assessed as protection against virus-induced cytopathic effect by MTT assay
[13] = Inhibition of HIV1 reverse transcriptase Y181C mutant infected in human MT2 cells assessed as protection against virus-induced cytopathic effect by MTT assay
[14] = Inhibition of HIV1 reverse transcriptase K103N/Y181C double mutant infected in human MT2 cells assessed as protection against virus-induced cytopathic effect by MTT assay
[15] = Inhibition of HIV1 reverse transcriptase K103N/Y188C double mutant infected in human MT4 cells assessed as protection against virus-induced cytopathic effect measured 5 days post infection by MTT assay
[16] = Inhibition of wild-type HIV1 3B reverse transcriptase infected in human MT4 cells assessed as protection against virus-induced cytopathic effect measured 5 days post infection by MTT assay
[17] = Inhibition of HIV1 reverse transcriptase E138K mutant infected in human MT4 cells assessed as protection against virus-induced cytopathic effect measured 5 days post infection by MTT assay
[18] = Inhibition of HIV1 reverse transcriptase K103N mutant infected in human MT4 cells assessed as protection against virus-induced cytopathic effect measured 5 days post infection by MTT assay
[19] = Inhibition of CXCR4 tropic HIV1 UG070 reverse transcriptase infected in human TZM-bl cells
Reverse transcriptase = Reverse transcriptase (Human immunodeficiency virus 1, UniProt Q9WKE8); experiment: Inhibition of CXCR4 tropic HIV1 3B reverse transcriptase infected in human TZM-bl cells
[20] = Inhibition of CCR5 tropic HIV1 VB59 reverse transcriptase infected in human TZM-bl cells
[21] = Inhibition of CCR5 tropic HIV1 ADA5 reverse transcriptase infected in human TZM-bl cells
[22] = target: recombinant HIV1 reverse transcriptase Y188L mutant; experiment: Inhibition of recombinant HIV1 reverse transcriptase Y188L mutant
[23] = Inhibition of wild-type HIV1 3B reverse transcriptase infected in human MT4 cells assessed as protection against virus-induced cytopathic effect measured after 4 days by MTT assay
[24] = Inhibition of HIV1 reverse transcriptase K103N/Y188C double mutant infected in human MT4 cells assessed as protection against virus-induced cytopathic effect measured after 4 days by MTT assay
[25] = Inhibition of HIV1 RES056 reverse transcriptase K103N/Y181C double mutant infected in human MT4 cells assessed as protection against virus-induced cytopathic effect
[26] = Inhibition of wild-type HIV1 3B reverse transcriptase infected in human MT4 cells assessed as protection against virus-induced cytopathic effect

Compound | IC50 [5] | IC50 [6] | IC50 [7] | IC50 [8] | IC50 [9] | IC50 [10] | IC50 [11] | other results
N#C/C=C/c1ccc(Nc2nc(Nc3ccc(C#N)cc3)ncc2C(=O)NCCCN2CCCC2)cc1 | – | – | – | – | – | – | – | EC50 [1]: 16 nM; EC50 [2]: 0.794 nM; EC50 [3]: 20 nM; EC50 [4]: 1 nM
Cc1cc(Br)cc(C)c1Sc1ccnc(Nc2ccc(C#N)cc2)n1 | 354 nM | 5.7 nM | 44 nM | 174 nM | 3890 nM | 68 nM | 39 nM | –
N#C/C=C/c1cc(F)c(Nc2nc(NCCCN3CCOCC3)nc(Nc3ccc(C#N)cc3)n2)c(F)c1 | – | – | – | – | – | – | – | EC50 [12]: 5.7 nM; EC50 [13]: 75 nM; EC50 [14]: 16 nM
Cc1cc(C#Cc2cccnc2)cc(C)c1Oc1ccnc(Nc2ccc(C#N)cc2)n1 | – | – | – | – | – | – | – | EC50 [15]: 935 nM; EC50 [16]: 3 nM; EC50 [17]: 22 nM; EC50 [18]: 10 nM
Cc1cc(C)c(Nc2nc(Cl)nc(Nc3ccc(C#N)nc3)n2)c(C)c1 | – | – | – | – | – | – | – | IC50 [19]: 1.12 nM; IC50 (Reverse transcriptase): 0.124 nM; IC50 [20]: 0.497 nM; IC50 [21]: 0.273 nM
Cc1cc(C)c(Nc2ccnc(Nc3ccc(C(N)=O)cc3)n2)c(C)c1 | – | – | – | – | – | – | – | IC50 [22]: < 10000 nM
N#C/C=C/c1ccc(Nc2cc(NCCCN3CCOCC3)nc(Nc3ccc(C#N)cc3)n2)cc1 | – | – | – | – | – | – | – | EC50 [1]: 98 nM; EC50 [2]: 20 nM; EC50 [3]: 87 nM; EC50 [4]: 219 nM
Cc1cc(C#N)cc(C)c1Oc1nc(Nc2ccc(C#N)cc2)ncc1N | 14 nM | 1 nM | 5.7 nM | 16 nM | 282 nM | 9.3 nM | 1.3 nM | –
N#Cc1ccc(Nc2nc(N)cc(Cc3c(Cl)cccc3Cl)n2)cc1 | – | 1 nM | 71 nM | 299 nM | – | 175 nM | 12 nM | –
CN(C)CCNC(=O)c1cnc(Nc2ccc(C#N)cc2)nc1Nc1ccc(/C=C/C#N)cc1 | – | – | – | – | – | – | – | EC50 [1]: 20 nM; EC50 [2]: 0.794 nM; EC50 [3]: 16 nM; EC50 [4]: 0.631 nM
N#Cc1ccc(Nc2nc(N)nc(Cc3c(Cl)cccc3Cl)n2)cc1 | – | 6 nM | 316 nM | 398 nM | – | 200 nM | 40 nM | –
Cc1cc(C#N)cc(C)c1Nc1nc(Nc2ccc(C#N)cc2)ncc1Br | 32 nM | 0.4 nM | 3.3 nM | 7 nM | 37 nM | 9.6 nM | 0.4 nM | –
Cc1cc(C)c(Nc2cc(OCCCN3CCOCC3)nc(Nc3ccc(C#N)cc3)n2)c(C)c1 | – | – | – | – | – | – | – | EC50 [13]: 480 nM; EC50 [14]: 38 nM
C=Cc1cnc(Nc2ccc(C#N)cc2)nc1Nc1c(C)cc(C)cc1C | 106 nM | 2.5 nM | 29 nM | 35 nM | > 100000 nM | 36 nM | 5.8 nM | –
N#Cc1ccc(Nc2nccc(Oc3ccc4ccccc4c3Br)n2)cc1 | – | – | – | – | – | – | – | EC50 [23]: 2.4 nM; EC50 [24]: 6570 nM
Cc1cc(C(C#N)c2ccccc2F)nc(Nc2ccc(C#N)cc2)n1 (configuration not stated) | – | – | – | – | – | – | – | EC50 [25]: > 217 nM; EC50 [26]: 1.8 nM
Cc1cc(C#N)cc(C)c1Oc1ccnc(Nc2ccc(C#N)cc2)n1 | 94 nM | 1.1 nM | 19 nM | 73 nM | 798 nM | 37 nM | 2.7 nM | –

Compound | IC50 [5] | IC50 [6] | IC50 [7] | IC50 [8] | IC50 [9] | IC50 [10] | IC50 [11] | other results
Cc1cc(C)c(Nc2nc(Nc3ccc(C#N)cc3)ncc2-c2ccccc2)c(C)c1 | – | 24 nM | – | – | – | – | – | –
Cc1cc(C#N)cc(C)c1Nc1nc(Nc2ccc(C#N)cc2)ncc1C#N | 181 nM | 0.5 nM | 8.6 nM | 91 nM | 312 nM | 76 nM | 2.6 nM | –
Cc1cc(C#N)cc(C)c1Nc1nc(Nc2ccc(C#N)cc2)ncc1Cl | 69 nM | 1.2 nM | 4.7 nM | 5.2 nM | 144 nM | 14 nM | 0.9 nM | –
Cc1cnc(Nc2ccc(C#N)cc2)nc1Nc1c(C)cc(C#N)cc1C | 162 nM | 0.8 nM | 16 nM | 16 nM | > 10000 nM | 12 nM | 1.7 nM | –
Cc1cc(C#N)cc(C)c1Nc1ccnc(Nc2ccc(C#N)cc2)n1 | 37 nM | 0.4 nM | 7.8 nM | 34 nM | 1090 nM | 7.1 nM | 1.9 nM | –
N#Cc1ccc(Nc2cc(N)nc(Cc3c(Cl)cccc3Cl)n2)cc1 | – | 452 nM | > 100000 nM | > 100000 nM | – | > 100000 nM | > 100000 nM | –
C#Cc1cnc(Nc2ccc(C#N)cc2)nc1Nc1c(C)cc(C)cc1C | 42 nM | – | – | – | 71 nM | – | 6.2 nM | –
Cc1cc(C#N)cc(C)c1Oc1nc(Nc2ccc(C#N)cc2)ncc1[N+](=O)[O-] | 194 nM | 18 nM | 782 nM | 121 nM | > 10000 nM | 304 nM | 10 nM | –
CC(=O)Nc1cnc(Nc2ccc(C#N)cc2)nc1Oc1c(C)cc(C#N)cc1C | 30 nM | – | – | – | 205 nM | – | 3.3 nM | –
Cc1cc(C#CCCO)cc(C)c1Oc1ccnc(Nc2ccc(C#N)cc2)n1 | – | – | – | – | – | – | – | EC50 [16]: 3 nM
CCN(c1nc(Nc2ccc(C#N)cc2)nc(Oc2c(C)cc(C)cc2C)n1)N1CCOCC1 | – | – | – | – | – | – | – | EC50 [15]: 650 nM; EC50 [16]: 7.8 nM
N#Cc1ccc(Nc2cc(Cc3c(Cl)cccc3Cl)nc(N)n2)cc1 | – | 10 nM | > 100000 nM | 96600 nM | – | > 100000 nM | 33300 nM | –
N#Cc1ccc(Nc2nccc(Oc3ccc4cc(C#N)ccc4c3Br)n2)cc1 | – | – | – | – | – | – | – | EC50 [23]: 2 nM; EC50 [24]: 240 nM
Cc1cc(/C=C/C#N)cc(C)c1Nc1nc(Nc2ccc(C#N)cc2)nc(OCCCN2CCOCC2)n1 | – | – | – | – | – | – | – | EC50 [13]: 12 nM; EC50 [14]: 1.3 nM
N#C/C=C/c1ccc(Nc2cc(NCCc3ccc(S(N)(=O)=O)cc3)nc(Nc3ccc(C#N)cc3)n2)cc1 | – | – | – | – | – | – | – | EC50 [1]: 91 nM; EC50 [2]: 16 nM; EC50 [3]: 98 nM; EC50 [4]: 389 nM
Cc1cc(C)c(Nc2nc(N)nc(Nc3ccc(C#N)nc3)n2)c(C)c1 | – | – | – | – | – | – | – | IC50 [19]: 0.784 nM; IC50 (Reverse transcriptase): 0.131 nM; IC50 [20]: 0.183 nM; IC50 [21]: 0.183 nM

— BindingDB's records for doi:10.1016/j.ejmech.2018.09.013 (Wuhan Institute of Technology, 2018)
